Measured values reported in patent publication US20210221848A1, “POLYMYXIN DERIVATIVES AND THEIR USE IN COMBINATION THERAPY TOGETHER WITH DIFFERENT ANTIBIOTICS” (priority 2014, published 2021).
Read-outs that look alike come from different tables or passages of the source.

Experiments:
A. baumannii [1] = tested on: A. baumannii
HK-2 cell line = assay: In vitro renal cell toxicity assay (resazurin reduction)
Procedure: MICs were determined as described herein. HK-2 cell IC50 values were determined as described herein. Values are reported relative to Polymyxin B.

K. pneumoniae [2] = assay: MIC in the presence of a fixed concentration (2 μg/mL) of Rifampicin; type: cell-based, Klebsiella pneumoniae; conditions: Rifampicin 2 μg/mL, Table 5D
Procedure: (§1) The inoculum was prepared by making a direct suspension of isolated colonies (selected from an 18-24 hour Mueller-Hinton agar plate) adjusted to the 0.5 McFarland standard. […] The assays were performed in duplicate. […] In cases where the duplicate values varied by less than 2-fold, the lower of the two values is reported. If a variation of greater than 2-fold was observed, the assay was considered non-valid. Several of the compounds were subjected to multiple tests, and where this is the case, the MIC reflects the modal value obtained.

A. baumannii [3] = assay: MIC in the presence of […] of rifampicin; type: cell-based, Acinetobacter baumannii
Procedure: as §1

K. pneumoniae [4] = tested on: K. pneumoniae
E. coli [5] = assay: MIC in the presence of a fixed concentration (2 μg/mL) of Rifampicin; type: cell-based, Escherichia coli; conditions: Rifampicin 2 μg/mL, Table 5D
E. coli [6] = tested on: E. coli
P. aeruginosa [7] = tested on: P. aeruginosa
[8] = tested on: Acinetobacter baumannii NCTC 13301; conditions: mouse thigh, 16 h model
A. baumannii [9] = assay: MIC in 1:1 (wt:wt) combination with Rifampicin; type: cell-based, Acinetobacter baumannii; conditions: 1:1 (wt:wt) with Rifampicin, total drug concentration
Procedure: as §1
(§2) MIC values (microgram/mL) refer to the total drug concentration (i.e. test agent plus Rifampicin).

[10] = tested on: A. baumanii strains with elevated MICs to Polymyxin B; assay: MIC against strains with elevated MICs to Polymyxin B; type: cell-based, Acinetobacter baumannii; conditions: Table 6D
Procedure, shortened: (§3)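 Direct colony suspension at 0.5 McFarland (from 18-24 h Mueller-Hinton agar) served as inoculum; duplicates, lower value kept if within 2-fold.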

E. coli [11] = assay: MIC in 1:1 (wt:wt) combination with Rifampicin; type: cell-based, Escherichia coli; conditions: 1:1 (wt:wt) with Rifampicin, total drug concentration
Procedure: as §1, §2

K. pneumoniae [12] = assay: MIC in 1:1 (wt:wt) combination with Rifampicin; type: cell-based, Klebsiella pneumoniae; conditions: 1:1 (wt:wt) with Rifampicin, total drug concentration
Procedure: as §1, §2

[13] = tested on: Acinetobacter baumannii NCTC 13301; conditions: for Mean log10 CFU reduction vs. control: mouse lungs, A. baumannii NCTC 13301, SC at 2, 6 and 10 h post-infection, 16 h infection model
Procedure: On Day 0, animals were infected with 0.04 mL inoculum by intranasal instillation into mouse nostrils and were kept in an upright position on a string rack for ˜10 min post-infection. […] The vehicle control group (7 mice) was treated with 0.9% saline for injection at 2, 6 and 10 h post-infection.
Sixteen hours after infection, the mice were euthanized humanely. The lungs of each animal were harvested, homogenized and quantitatively cultured onto CLED agar for CFU determination. Decrease of the total CFU compared to control counts at 16 h post-infection was determined for each dose group.

[14] = tested on: P. aeruginosa strains with elevated MICs to Polymyxin B; assay: MIC against strains with elevated MICs to Polymyxin B; type: cell-based, Pseudomonas aeruginosa; conditions: Table 6D
Procedure, shortened: as §3

[15] = tested on: E. coli strains with elevated MICs to Polymyxin B; assay: as above; type: cell-based, Escherichia coli; conditions: Table 6D
Procedure, shortened: as §3

[16] = tested on: K. pneumoniae strains with elevated MICs to Polymyxin B; assay: as above; type: cell-based, Klebsiella pneumoniae; conditions: Table 6D
Procedure, shortened: as §3

P. aeruginosa [17] = assay: MIC in 1:1 (wt:wt) combination with Rifampicin; type: cell-based, Pseudomonas aeruginosa; conditions: 1:1 (wt:wt) with Rifampicin, total drug concentration
Procedure: as §1, §2

[18] = absence of a second agent, Table 6B

3-Amino-2- benzylpropanoylpoly- myxin B nonapeptide [Example D5]
MIC, A. baumannii ATCC BAA-747 (A. baumannii [1]; [18]): >8 micrograms/mL
MIC, A. baumannii NCTC 13424 (A. baumannii [1]; [18]): >8 micrograms/mL
HK-2 IC50 rel to PMB (HK-2 cell line): 15.3
MIC in combination with Rifampicin, K. pneumoniae ATCC 4352 (K. pneumoniae [2]; K. pneumoniae ATCC 4352): 0.03 micrograms/mL
MIC in combination with Rifampicin, K. pneumoniae ATCC BAA-2146 (K. pneumoniae [2]; K. pneumoniae ATCC BAA-2146): 0.25 micrograms/mL
MIC in combination with Rifampicin, A. baumannii ATCC BAA-747 (A. baumannii [3]; A. baumannii ATCC BAA-747, Table 5D): 0.25 micrograms/mL
MIC in combination with Rifampicin, A. baumannii NCTC 13424 (A. baumannii [3]; A. baumannii NCTC 13424, Table 5D): ≤0.015 micrograms/mL
MIC, K. pneumoniae ATCC 4352 (K. pneumoniae [4]; [18]): 8 micrograms/mL
MIC, K. pneumoniae ATCC BAA-2146 (K. pneumoniae [4]; [18]): >8 micrograms/mL
MIC in combination with Rifampicin, E. coli ATCC 25922 (E. coli [5]; E. coli ATCC 25922): 0.03 micrograms/mL
MIC in combination with Rifampicin, E. coli NCTC 13441 (E. coli [5]; E. coli NCTC 13441): 0.06 micrograms/mL
MIC, E. coli ATCC 25922 (E. coli [6]; [18]): 8 micrograms/mL
MIC, E. coli NCTC 13441 (E. coli [6]; [18]): >8 micrograms/mL
MIC, P. aeruginosa ATCC 27853 (P. aeruginosa [7]; [18]): 1 micrograms/mL
MIC, P. aeruginosa CCUG 59347 (P. aeruginosa [7]; [18]): >8 micrograms/mL

(trans-5-(isobutyl- piperidine)-3- carbonyl L-Thr-L- Dap-polymyxin B heptapeptide [Example D65]
MIC, A. baumannii ATCC BAA-747 (A. baumannii [1]; sole activity, Table 6C): 0.06 micrograms/mL
MIC, A. baumannii NCTC 13424 (A. baumannii [1]; sole activity, Table 6C): 0.125 micrograms/mL
Mean log10 CFU reduction vs. control ([8]; 0.215 mg/kg/dose free base SC at 2, 6 and 10 h post-infection): 0.71 log10 CFU
Mean log10 CFU reduction vs. control ([8]; 0.86 mg/kg/dose free base SC at 2, 6 and 10 h post-infection): 2.40 log10 CFU
Mean log10 CFU reduction vs. control ([8]; 2.6 mg/kg/dose free base SC at 2, 6 and 10 h post-infection): 5.42 log10 CFU
Mean log10 CFU reduction vs. control ([8]; 8.6 mg/kg/dose free base SC at 2, 6 and 10 h post-infection): 6.05 log10 CFU
Mean log10 CFU reduction vs. control ([8]; 17.2 mg/kg/dose free base SC at 2, 6 and 10 h post-infection): 6.59 log10 CFU
MIC in 1:1 combination with rifampicin, A. baumannii 053 (A. baumannii [9]; A. baumannii 053): ≤0.5 microgram/mL
MIC in 1:1 combination with rifampicin, A. baumannii 056 (A. baumannii [9]; A. baumannii 056): ≤0.5 microgram/mL
MIC A. baumannii 053 ([10]; strain 053, elevated MIC to Polymyxin B): 16 micrograms/mL
MIC A. baumannii 056 ([10]; strain 056, elevated MIC to Polymyxin B): 1 micrograms/mL
MIC A. baumannii 068 ([10]; strain 068, elevated MIC to Polymyxin B): 2 micrograms/mL
MIC A. baumannii 070 ([10]; strain 070, elevated MIC to Polymyxin B): 4 micrograms/mL
MIC in 1:1 combination with rifampicin, E. coli 058 (E. coli [11]; E. coli 058): ≤0.5 microgram/mL
MIC in 1:1 combination with rifampicin, E. coli 059 (E. coli [11]; E. coli 059): ≤0.5 microgram/mL
MIC in 1:1 combination with rifampicin, E. coli 060 (E. coli [11]; E. coli 060): ≤0.5 microgram/mL
MIC in 1:1 combination with rifampicin, E. coli ATCC 25922 (E. coli [11]; E. coli ATCC 25922): ≤0.5 microgram/mL
MIC, K. pneumoniae ATCC 4352 (K. pneumoniae [4]; sole activity, Table 6C): 0.03 micrograms/mL
MIC, K. pneumoniae ATCC BAA-2146 (K. pneumoniae [4]; sole activity, Table 6C): 0.125 micrograms/mL
MIC in 1:1 combination with rifampicin, K. pneumoniae 062 (K. pneumoniae [12]; K. pneumoniae 062): 1 microgram/mL
MIC in 1:1 combination with rifampicin, K. pneumoniae CCUG 59348 (K. pneumoniae [12]; K. pneumoniae CCUG 59348): 1 microgram/mL
MIC, E. coli ATCC 25922 (E. coli [6]; sole activity, Table 6C): 0.03 micrograms/mL
MIC, E. coli NCTC 13441 (E. coli [6]; sole activity, Table 6C): 0.06 micrograms/mL
efficacy compared with polymyxin B ([13]; mouse lung, all doses (2.6, 8.6, 17.2 and 25.8 mg/kg free base), SC at 2, 6 and 10 h, 16 h): greater efficacy than observed with the equivalent dose of polymyxin B
Mean log10 CFU reduction vs. control ([13]; 2.6 mg/kg/dose free base): 1.07 log10 CFU
Mean log10 CFU reduction vs. control ([13]; 8.6 mg/kg/dose free base): 1.91 log10 CFU
Mean log10 CFU reduction vs. control ([13]; 17.2 mg/kg/dose free base): 2.89 log10 CFU
Mean log10 CFU reduction vs. control ([13]; 25.8 mg/kg/dose free base): 8.15 log10 CFU
MIC, P. aeruginosa ATCC 27853 (P. aeruginosa [7]; sole activity, Table 6C): 0.25 micrograms/mL
MIC, P. aeruginosa CCUG 59347 (P. aeruginosa [7]; sole activity, Table 6C): 0.25 micrograms/mL
MIC P. aeruginosa 065 ([14]; strain 065, elevated MIC to Polymyxin B): 2 micrograms/mL
MIC P. aeruginosa 066 ([14]; strain 066, elevated MIC to Polymyxin B): 1 micrograms/mL
MIC P. aeruginosa 067 ([14]; strain 067, elevated MIC to Polymyxin B): 64 micrograms/mL
MIC E. coli 058 ([15]; strain 058, elevated MIC to Polymyxin B): 1 micrograms/mL
MIC E. coli 059 ([15]; strain 059, elevated MIC to Polymyxin B): 2 micrograms/mL
MIC E. coli 060 ([15]; strain 060, elevated MIC to Polymyxin B): 1 micrograms/mL
MIC E. coli 061 ([15]; strain 061, elevated MIC to Polymyxin B): 2 micrograms/mL
MIC K. pneumoniae 062 ([16]; strain 062, elevated MIC to Polymyxin B): 32 micrograms/mL
MIC K. pneumoniae 063 ([16]; strain 063, elevated MIC to Polymyxin B): 8 micrograms/mL
MIC K. pneumoniae 064 ([16]; strain 064, elevated MIC to Polymyxin B): 2 micrograms/mL
MIC K. pneumoniae 655 ([16]; strain 655, elevated MIC to Polymyxin B): 4 micrograms/mL
MIC in 1:1 combination with rifampicin, P. aeruginosa 063 (P. aeruginosa [17]; P. aeruginosa 063): 16 microgram/mL
MIC in 1:1 combination with rifampicin, P. aeruginosa 068 (P. aeruginosa [17]; P. aeruginosa 068): 1 microgram/mL
